Measurements taken from patent US10166225B2, “Method for treating osteoporosis” (Exelixis, Inc., priority 2011, dated 2019).

B1: OPG: Osteoprotegerin, reference inhibitor of osteoclast differentiation (protein, UniProt O00300 22-401, looked up)
Tumor necrosis factor …: ETFPPKYLHYDEETSHQLLCDKCPPGTYLKQHCTAKWKTVCAPCPDHYYTDSWHTSDECLYCSPVCKELQYVKQECNRTHNRVCECKEGRYLEIEFCLKHRSCPPGFGVVQAGTPERNTVCKRCPDGFFSNETSSKAPCRKHTNCSVFGLLLTQKGNATHDNICSGNSESTQKCGIDVTLCEEAFFRFAVPTKFTPNWLSVLVDNLPGTKVNAESVERIKRQHSSQEQTFQLLKLWKHQNKDQDIVKKIIQDIDLCENSVQRHIGHANLTFEQLRSLMESLPGKKVGAEDIEKTIKACKPSDQILKLLSLWRIKNGDQDTLKGLMHALKHSKTYHFPKTVTQSLKKTIRFLHSFTMYKLYQKLFLEMIGNQVQSVKISCL

What was measured:
[1] = test system: rat ovariectomy (OVX) model; assay: Short-term effects on body weight, uterine weight and bone turnover markers in the rat ovariectomy (OVX) model; assay type: in vivo, rat (Sprague-Dawley); parameters: key to Body weight, change during the first week / Body weight, change during the in-life phase / Relative uterine weight at day 14 / Serum PINP levels, change during the in-life phase / Serum OC levels, change during the in-life phase / Serum CTX levels, change during the in-life phase / Serum TRACP 5b activity, change during the in-life phase: An upwards arrow (↑) indicates a statistically significant increase; a downwards arrow (↓) a statistically significant decrease; One asterisk (*) indicates a statistical significance with a p-value<0.05; two asterisks (**) with a p-value<0.01; three asterisks (***) with a p-value<0.001; NS=Non-significant
Text: The objective of this study was to investigate short-term effects of Compound 1 on biochemical serum markers of bone metabolism in a prevention study in a rat ovariectomy (OVX) model for postmenopausal osteoporosis. 17β-estradiol (E2) was used as a reference compound. The following five experimental groups were included in the study:
Each group contained eight female rats (Sprague-Dawley) that were three months of age at the beginning of in-life phase of the study. Before the start of the in-life phase, animals were weighed, their blood samples were harvested, and animals were randomized to study groups by stratification according to body weight and serum levels of procollagen type I N-terminal propeptide (PINP). At the beginning of the in-life phase, animals were weighed and operated. Treatment was started one day after the operations and continued once a day for two weeks. Sterile water was used as vehicle in groups 1 and 2. Body weight was determined after one week of treatment and treatment doses were adjusted accordingly. After two weeks of treatment, animals were weighed, their blood samples were harvested, animals were terminated, and their relative uterine weight was determined. For analyzing short-term effects of treatments, levels of four bone metabolism biomarkers were determined in serum samples harvested before the start and at the end of the in-life phase. These biomarkers included PINP as a marker of bone formation, N-terminal mid-fragment of osteocalcin (OC) as a general marker of bone turnover, C terminal cross-linked telopeptides of type I collagen (CTX) as a marker of bone resorption, and tartrate-resistant acid phosphatase isoform 5b (TRACP 5b) as a marker of osteoclast number. Serum levels at day −7 were used as baseline levels and serum levels at day 14 as levels affected by operations and treatments.
Each group contained eight female rats (Sprague-Dawley) that were three months of age at the beginning of in-life phase of the study. Animals were randomized to study groups by stratification according to their body weight and serum levels of procollagen type I N-terminal propeptide (PINP) measured one week before the start of the in-life phase (at day −7). At the beginning of the in-life phase (at day 0), animals were weighed, animals in groups 2-5 were ovariectomized, and animals in group 1 SHAM-operated. Treatment was started one day after the operations and continued once a day for two weeks (up to day 13). Sterile water was used as vehicle in groups 1 and 2. Body weight was determined at the beginning of the in-life phase (at day 0), one week after the start of the inlife phase (at day 7), and at the end of the in-life phase (at day 14). Treatment doses were adjusted according to the latest body weight obtained. After two weeks of treatment (at day 14), animals were weighed, their blood samples were harvested, animals were terminated, and their relative uterine weight was determined. For analyzing short-term effects of treatments, levels of four bone metabolism biomarkers were measured in serum samples harvested before the start of the in-life phase (at day −7) and at the end of the in-life phase (at day 14). These biochemical serum markers included PINP, N-terminal mid-fragment of osteocalcin (OC), C-terminal cross-linked telopeptides of type I collagen (CTX), and tartrate-resistant acid phosphatase isoform 5b (TRACP 5b). Serum levels obtained at day −7 were used as baseline levels and serum levels obtained at day 14 as levels affected by surgical operations and treatments.
Biochemical markers of bone metabolism are useful tools for monitoring osteoporosis therapy and for prediction of fracture risk and long-term changes in bone mineral density (Cremers et al. 2008). […]

[2] = test system: KS483 mouse osteoprogenitor cells; assay: Osteoblast differentiation assay (cellular ALP activity at day 8); assay type: cell-based; conditions: reference stimulator, 10 nM
Procedure: In the third part, KS483 mouse osteoprogenitor cells were cultured for 8 days, after which the formed mature osteoblasts were quantitated by measuring the amount of intracellular alkaline phosphatase (ALP) activity. […] The effects on osteoblasts were studied using KS483 mouse osteoprogenitor cells that can be induced to differentiate into bone-forming osteoblasts. […] In the osteoblast differentiation assay, the cells were cultured for 8 days, after which the formed mature osteoblasts were quantitated by measuring the amount of intracellular alkaline phosphatase (ALP) activity. […] A culture system was established that can be used as an in vitro model for studying the effects of anabolic and estrogen-like compounds on osteoblast differentiation and activity. In this culture system mouse KS483 cells first proliferate and then differentiate into osteoblasts capable of forming mineralized bone nodules in the presence of ascorbic acid and ß-glycerophosphate (Fagerlund et al. 2009). The test and reference compounds are added into the cell cultures concomitantly with the medium change, and their effects on the differentiation and activity of osteoblasts are determined. Cellular ALP, a marker of osteoblast differentiation, is determined from the cell lysates as described earlier (Lowry et al. 1954). Secreted PINP, a marker of organic bone matrix formation, is determined from the culture medium using a commercially available method (Rat/Mouse PINP EIA, IDS Ltd, Boldon, UK). Calcium deposition, an index of inorganic bone matrix formation, is measured using a commercially available calcium assay (Roche Diagnostics). Mouse KS483 cells were cultured in T-75 tissue culture flasks in aMEM supplemented with 10% charcoal-stripped fetal bovine serum until 80-90% confluence. The cells were incubated in a CO2 incubator in humidified atmosphere of 95% air and 5% carbon dioxide at 37° C. After reaching 80-90% confluence, subcultures were prepared. Cells were removed from the flasks with trypsin treatment and counted. For induction of the maturation of osteoblasts and bone formation, the immature osteoblastic cells were plated in type I collagen-coated 96-well plates. The cells were cultured for 8 days with a supplement of ascorbic acid ([…]), and half of the media was changed every 3-4 days. The test compound and control substance (E2) were added in the beginning of the culture period and when the medium was changed. The cultures were stopped at day 8 by removing the culture media from the wells, and cell lysates were prepared. Cellular ALP activity and total protein content (Protein Assay, Bio-Rad Laboratories Inc, CA, USA) were quantitated by using VICTOR2™ Multilabel Counter (PerkinElmer, Waltham, Mass., USA).

[3] = test system: KS483 mouse osteoprogenitor cells; assay: Osteoblast activity assay (PINP at day 11, calcium deposition at day 13); assay type: cell-based; conditions: reference stimulator, 10 nM
Procedure: The effects on osteoblasts were studied using KS483 mouse osteoprogenitor cells that can be induced to differentiate into bone-forming osteoblasts. […] In the osteoblast differentiation assay, the cells were cultured for 8 days, after which the formed mature osteoblasts were quantitated by measuring the amount of intracellular alkaline phosphatase (ALP) activity. […] A culture system was established that can be used as an in vitro model for studying the effects of anabolic and estrogen-like compounds on osteoblast differentiation and activity. In this culture system mouse KS483 cells first proliferate and then differentiate into osteoblasts capable of forming mineralized bone nodules in the presence of ascorbic acid and ß-glycerophosphate (Fagerlund et al. 2009). The test and reference compounds are added into the cell cultures concomitantly with the medium change, and their effects on the differentiation and activity of osteoblasts are determined. Cellular ALP, a marker of osteoblast differentiation, is determined from the cell lysates as described earlier (Lowry et al. 1954). Secreted PINP, a marker of organic bone matrix formation, is determined from the culture medium using a commercially available method (Rat/Mouse PINP EIA, IDS Ltd, Boldon, UK). Calcium deposition, an index of inorganic bone matrix formation, is measured using a commercially available calcium assay (Roche Diagnostics). Mouse KS483 cells were cultured in T-75 tissue culture flasks in aMEM supplemented with 10% charcoal-stripped fetal bovine serum until 80-90% confluence. The cells were incubated in a CO2 incubator in humidified atmosphere of 95% air and 5% carbon dioxide at 37° C. After reaching 80-90% confluence, subcultures were prepared. Cells were removed from the flasks with trypsin treatment and counted. For induction of the maturation of osteoblasts and bone formation, the immature osteoblastic cells were plated in type I collagen-coated 96-well plates. The cells were cultured for 13 days with a supplement of ascorbic acid (50 μg/ml) and ß-glycerophosphate (5 mM), and half of the media was changed every 3-4 days. The test compound and control substance (E2) were added in the beginning of the culture period and when the medium was changed. Secreted PINP was measured from the culture medium at day 11 as a marker of organic bone matrix formation. The cultures were stopped at day 13 by removing the culture media from the wells and adding hydrochloric acid. Calcium deposited into the formed bone matrix was quantitated by using VICTOR2™ Multilabel Counter (PerkinElmer, Waltham, Mass., USA).

[4] = test system: human bone marrow-derived CD34+ osteoclast precursor cells; assay: Osteoclast differentiation assay (secreted TRACP 5b at day 7); assay type: cell-based; conditions: reference inhibitor, 5 nM
Procedure: The study was performed in four parts. In the first part, human bone marrow-derived CD34+ osteoclast precursor cells were cultured on bovine bone slices for 7 days, after which the formed osteoclasts were quantitated by measuring tartrate-resistant acid phosphatase 5b activity (TRACP 5b) in the culture medium.
The objective of this study was to investigate the effects of Compound 1 selected by the Sponsor on differentiation and activity of human osteoclasts and mouse osteoblasts in vitro. The effects on osteoclasts were studied using a model where bone marrow-derived human osteoclast precursor cells are cultured on bovine bone slices for 7 days in conditions favouring osteoclast differentiation, and allowed to differentiate into bone-resorbing osteoclasts. After completion of osteoclast differentiation at day 7, the culture medium was removed and new culture medium favouring osteoclast activity was added into the wells. The mature osteoclasts were then cultured for an additional 3 days, allowing them to resorb bone. In the osteoclast differentiation assay, the test compounds and a reference inhibitor osteoprotegerin (OPG) were added into cultures at day 0. In the osteoclast activity assay, the test compounds and a reference inhibitor E64 were added into cultures at day 7. Seven concentrations in 8 replicates were tested in both assays. Tartrate-resistant acid phosphatase 5b activity (TRACP 5b) was measured from the culture medium collected at day 7 as an index of the number of osteoclasts formed in each well during the differentiation period. C-terminal cross-linked telopeptides of type I collagen (CTX) was measured from the culture medium collected at day 10 to quantitate bone resorption during days 7-10.
A human osteoclast culture system was developed for use in this study where CD34+ osteoclast precursor cells derived from human bone marrow (Poietics® Human Osteoclast Precursors, Lonza, Walkersville, USA) are cultured on bovine bone slices in the presence of appropriate growth factors, including M-CSF and RANK-ligand (Rissanen et al. 2009). The cells are first allowed to differentiate into mature bone-resorbing osteoclasts, and the formed osteoclasts are then allowed to resorb bone. The test and reference compounds are added into the cell cultures at the beginning of the differentiation and/or the resorption period, and their effects on the differentiation and/or resorbing activity of osteoclasts are determined.
Secreted TRACP 5b is determined from the culture medium after the differentiation period using a commercially available method (BoneTRAPÒ, IDS Ltd, Boldon, UK). Secreted TRACP 5b describes accurately the number of osteoclasts formed in each well during the differentiation period. CTX is determined from the culture medium after the resorption period using a commercially available method (CrossLapsÒ for cultures, IDS Ltd, Boldon, UK). CTX describes accurately the amount of bone collagen degradation products released into the culture medium in each well during the resorption period.
In this study, human bone marrow-derived CD34+ stem cells (10000 cells/well) were suspended in culture medium and allowed to attach to bovine bone slices in 96-well tissue culture plates. The culture medium (containing 10% FBS, OCP BulletKit® Lonza, Walkersville, USA) was supplemented with appropriate amounts of important growth factors favoring osteoclast differentiation and activity, including M-CSF (33 ng/ml, OCP BulletKit® Lonza, Walkersville, USA) and RANK-ligand (66 ng/ml, OCP BulletKit® Lonza, Walkersville, USA) in 200 μl of medium. The cells were incubated in a CO2 incubator in humidified atmosphere of 95% air and 5% carbon dioxide at 37° C. for 7 days. The test compounds and reference compound OPG were added at day 0. Supernatants collected at day 7 were stored at −70° C. until analysis of TRACP 5b. TRACP 5b was measured from the culture medium (20 μl/sample) using VICTOR2™ Multilabel Counter (PerkinElmer, Waltham, Mass., USA). […]

[5] = OVX rats vs OVX vehicle, E2 4 μg/kg/d s.c.
[6] = OVX rats, 17β-estradiol 4 μg/kg/d s.c., two weeks

Row | Molecule | Body weight, change during the first week [1, 5] | Body weight, change during the in-life phase [1, 5] | Relative uterine weight at day 14 [1, 5] | Serum CTX levels, change during the in-life phase [1, 5] | Serum OC levels, change during the in-life phase [1, 5] | Serum PINP levels, change during the in-life phase [1, 5] | Serum TRACP 5b activity, change during the in-life phase [1, 5] | OVX-induced gain in body weight [1, 6] | OVX-induced increase in serum CTX levels [1, 6] | OVX-induced increase in serum OC levels [1, 6] | OVX-induced increase in serum PINP levels [1, 6] | OVX-induced reduction in relative uterine weight [1, 6] | OVX-induced reduction in serum TRACP 5b activity [1, 6] | effect on osteoblast differentiation [2] | effect on osteoblast activity [3] | effect on osteoclast differentiation [4]
1 | C[C@]12CC[C@@H]3c4ccc(O)cc4CC[C@H]3[C@@H]1CC[C@@H]2O [Compound E2, 17β-estradiol, reference compound] | ↓ ** | ↓ ** | ↑ ** | ↓ *** | ↓ *** | ↓ ** | NS | prevented | prevented | prevented | prevented | prevented | did not affect | stimulated significantly | stimulated significantly | 
2 | B1 |  |  |  |  |  |  |  |  |  |  |  |  |  |  |  | inhibited significantly
